Experimental data as given in patent US5189038A, “Method of stimulating superoxide generation” (G. D. Searle and Co., priority 1991, dated 1993).
Where “and” joins values, the source holds several entries; their conditions need not be identical. Identical values can stand only once. Counter-ions that a name gives are not always drawn.

Legend:
[1] = tested on: FMLP-stimulated human neutrophils (superoxide generation); experiment: Human neutrophil superoxide generation (FMLP-stimulated, cytochrome C reduction); assay type: cell-based; settings: for activation at 5 µM / activation at 10 µM: read-out: Stimulation of FMLP Induced Superoxide, above control; for Stimulation of FMLP Induced Superoxide: concentrations at which compound stimulates: "Stimulates at" concentration range
Description: The compounds of the invention are evaluated with respect to superoxide modulating activity according to the following assay procedure:
Human neutrophil superoxide generation: Superoxide generation by formyl-methionyl-leucyl-phenylalanine (FMLP)-stimulated neutrophils was quantitated by the reduction of cytochrome C (Badwey, J. A., Curnutte, J. T. and Karnovsky, M. L., cis-Polyunsaturated fatty acids induce high levels of superoxide production by human neutrophils. J. Biol. Chem. 256: 12640-12643, 1981.) To 5 million neutrophils in 2.85 ml of KrebsRinger phosphate buffer, pH 7.2, 50 ul of inhibitor (in 10% DMSO/buffer), and 50 ul ferricytochrome C (5 mM, stock) were added and preincubated for 3 minutes at 37° C. Absorption measurements at 550 nm were recorded at start of preincubation. Fifty ul FMLP (6 uM, stock) was added to initiate reaction. A plateau was reached within 3 minutes and this reading--initial reading (before addition of FMLP) was used to calculate nanomoles of superoxide generated based on a molar extinction coefficient of 2.1×10^4 cm^-1 mole^-1.
Isolation of human neutrophils: Human neutrophils were isolated from freshly drawn blood of healthy donors. Two ml of 5% dextran (MW 200,000-300,000) in saline was added to 10 ml aliquots of blood, mixed and placed upright for 45 min. at 37° C. Approx. 8-10 ml of the plasma-white cell suspension from the dextran sedimentation was layered on 3 ml of Ficol-paque in a 15 ml tube and centrifuged at 400 g for 30 min. The supernate, containing plasma and platelets, was discarded by aspiration, and the pellet, containing predominantly neutrophils, was resuspended in 1 ml saline. The suspension was transferred to a clean tube, and pooled with other aliquots of blood treated similarly. The pooled suspension was centrifuged at 350 g for 5 min. and supernate discarded. The pellet was resuspended in 5 ml of 0.05% NaCl with a plastic Pasteur pipette for 25 seconds to lyse contaminating red cells, then 5 ml of 1.75% NaCl added to regain isotonicity. The red cell lysing procedure was repeated, the cells suspended in appropriate buffer (depending on assay) and counted.
For comparison the compound of Formula IV, a known 5-lipoxygenase inhibitor described in U.S. Pat. No. 4,755,524 was used. [drawing 20] (±)[2S*-[[3.5-bis(1,1-dimethylethyl)-4-hydroxyphenyl]thio]-1R*-methylpro poxy]acetic acid

5-lipoxygenase = target: T1, 5-lipoxygenase (Rattus norvegicus, UniProt P12527); experiment: Inhibition of 5-lipoxygenase, in vitro (5-HETE synthesis by RBL-1 100,000×g supernatant); assay type: biochemical; settings: for IC50: RBL-1 homogenate supernatant, 5-HETE synthesis
T1 construct: supernatant fraction of Rat Basophilic Leukemia Cell Homogenate (RBL-1) serves as a 5-lipoxygenase enzyme source; endogenous in cells; host or cells: RBL-1 (rat basophilic leukemia) cells, 100,000×g supernatant of homogenate
T1 sequence (P12527 1-673): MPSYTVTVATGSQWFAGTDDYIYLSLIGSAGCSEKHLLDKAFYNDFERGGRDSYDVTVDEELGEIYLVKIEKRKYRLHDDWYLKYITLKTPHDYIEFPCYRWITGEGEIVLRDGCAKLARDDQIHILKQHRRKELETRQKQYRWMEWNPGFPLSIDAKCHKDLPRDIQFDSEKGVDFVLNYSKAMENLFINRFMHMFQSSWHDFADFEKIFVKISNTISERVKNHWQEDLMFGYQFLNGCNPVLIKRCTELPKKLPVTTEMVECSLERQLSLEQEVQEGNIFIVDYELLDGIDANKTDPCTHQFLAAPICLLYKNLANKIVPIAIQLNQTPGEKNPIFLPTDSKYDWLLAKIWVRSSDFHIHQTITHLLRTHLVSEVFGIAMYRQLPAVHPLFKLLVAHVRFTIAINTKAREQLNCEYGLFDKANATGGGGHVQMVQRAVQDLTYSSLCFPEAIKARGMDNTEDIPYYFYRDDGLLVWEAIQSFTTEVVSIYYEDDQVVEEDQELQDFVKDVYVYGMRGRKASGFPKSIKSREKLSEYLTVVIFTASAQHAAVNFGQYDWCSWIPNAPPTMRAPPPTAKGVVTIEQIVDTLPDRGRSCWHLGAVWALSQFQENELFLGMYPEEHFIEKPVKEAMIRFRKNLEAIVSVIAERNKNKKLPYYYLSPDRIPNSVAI
Description: The compounds of the invention are evaluated with respect to 5-lipoxygenaseinhibition according to the following assay procedure.
Inhibition of 5-lipoxygenase, in vitro:
anti-inflammatory, anti-allergy activities.
The 100,000×g supernatant fraction of Rat Basophilic Leukemia Cell Homogenate (RBL-1) serves as a 5-lipoxygenase enzyme source. The enzyme is incubated with [1-^14 C)-arachidonic acid and Ca++ in the presence and absence of test compound. The product of 5-lipoxygenase, 5-hydroxyeicosatetraenoic acid (5-HETE), is separated by thin-layer chromatography and measured by radioactivity. A compound inhibiting 5-HETE synthesis by 30% or more is considered active at that concentration.

| Compound | activation at 5 µM ([1]; Homo sapiens, Neutrophil) [%] | activation at 10 µM ([1]; Homo sapiens, Neutrophil) [%] | Stimulation of FMLP Induced Superoxide: concentrations at which compound stimulates [1] [µM] | IC50 (5-lipoxygenase) | also measured |
| --- | --- | --- | --- | --- | --- |
| C[C@H](Sc1cc(C(C)(C)C)c(O)c(C(C)(C)C)c1)[C@@H](C)OCC(=O)O (relative stereo) [Formula IV, (±)[2S*-[[3.5-bis(1,1-dimethylethyl)-4-hydroxyphenyl]thio]-1R*-methylpropoxy]acetic acid, reference compound] |  |  |  |  | IC50 ([1]; Homo sapiens, Neutrophil, inhibition of FMLP induced superoxide, read-out: Inhibited superoxide generation, IC50): 11000 nM; Effect on superoxide generation (in words) ([1]; neutrophils): inhibited both superoxide generation and 5-lipoxygenase; Effect on 5-lipoxygenase (in words) (5-lipoxygenase): inhibited both superoxide generation and 5-lipoxygenase |
| CN(CCc1ccccn1)C(=O)CCSc1cc(C(C)(C)C)c(O)c(C(C)(C)C)c1 [Example 5, 3-[[3,5-bis(1,1-dimethylethyl)-4-hydroxyphenyl]thio]-N-methyl-N-[2-(2-pyridinyl)ethyl]propanamide monohydrochloride] | 50 | 227 |  |  |  |
| Cc1cccc(C)c1NC(=O)CCSc1cc(C(C)(C)C)c(O)c(C(C)(C)C)c1 [Example 7, 3-[[3,5-bis(1,1-dimethylethyl)-4-hydroxyphenyl]thio]-N-(2,6-dimethylphenyl)propanamide] |  |  | 3 to 20 | 230 nM and 330 nM |  |
| CC(C)(C)c1cc(SCCC(=O)N2CCN(Cc3ccccc3)CC2)cc(C(C)(C)C)c1O [Example 8, 1-[3-[[3,5-Bis(1,1-dimethylethyl)4-hydroxyphenyl]thio]-1-oxopropyl]-4-(phenylmethyl)piperazine] | 150 | 206 |  | 160 nM |  |
| CC(C)C(O)CCSc1cc(C(C)(C)C)c(O)c(C(C)(C)C)c1 (centres unmarked) [Example 9, 2,6-bis(1,1-dimethylethyl)-4-[(3-hydroxy-4-methylpentyl)thio]phenol] |  |  | 5 to 50 | 260 nM |  |
| CC(C)C(C)(O)CCSc1cc(C(C)(C)C)c(O)c(C(C)(C)C)c1 (centres unmarked) [Example 10, 2,6-bis(1,1-dimethylethyl)-4-[(3-hydroxy-3,4-dimethylpentyl)thio]phenol] |  |  | 5 to 50 | 790 nM |  |
